Experiment [1] addresses Cannabinoid receptor 2 (Mus musculus, UniProt P47936). Put plainly: Compound was evaluated for its ability to displace specifically bound [3H]CP-55940 from a Cannabinoid receptor 2 enriched mouse spleen preparation. The class given is tissue-based.
Experiment [2] addresses Cannabinoid receptor 1 (Rattus norvegicus, UniProt P20272). Put plainly: Compound was evaluated for its ability to displace specifically bound [3H]CP-55940 from a Cannabinoid receptor 1 enriched rat brain microsome preparation.

For four compounds, Ki results are on record in ChEMBL document CHEMBL1129689, “Unsaturated side chain beta-11-hydroxyhexahydrocannabinol analogs” (J Med Chem, 1996).

Cannabinoid receptor 1, sequence (P20272 whole entry): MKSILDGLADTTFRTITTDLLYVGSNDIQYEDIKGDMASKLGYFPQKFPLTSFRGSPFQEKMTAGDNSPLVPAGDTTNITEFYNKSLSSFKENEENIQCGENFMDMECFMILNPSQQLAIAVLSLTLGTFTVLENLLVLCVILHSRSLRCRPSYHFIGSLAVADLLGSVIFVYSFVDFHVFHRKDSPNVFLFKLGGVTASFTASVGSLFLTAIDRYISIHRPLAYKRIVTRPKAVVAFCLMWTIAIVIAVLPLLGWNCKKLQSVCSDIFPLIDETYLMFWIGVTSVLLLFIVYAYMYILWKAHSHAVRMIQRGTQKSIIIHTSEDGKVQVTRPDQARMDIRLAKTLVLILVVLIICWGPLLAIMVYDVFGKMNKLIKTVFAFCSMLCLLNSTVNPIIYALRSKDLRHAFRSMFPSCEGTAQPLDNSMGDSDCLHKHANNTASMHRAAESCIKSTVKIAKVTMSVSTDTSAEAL
Cannabinoid receptor 2, sequence (P47936 whole entry): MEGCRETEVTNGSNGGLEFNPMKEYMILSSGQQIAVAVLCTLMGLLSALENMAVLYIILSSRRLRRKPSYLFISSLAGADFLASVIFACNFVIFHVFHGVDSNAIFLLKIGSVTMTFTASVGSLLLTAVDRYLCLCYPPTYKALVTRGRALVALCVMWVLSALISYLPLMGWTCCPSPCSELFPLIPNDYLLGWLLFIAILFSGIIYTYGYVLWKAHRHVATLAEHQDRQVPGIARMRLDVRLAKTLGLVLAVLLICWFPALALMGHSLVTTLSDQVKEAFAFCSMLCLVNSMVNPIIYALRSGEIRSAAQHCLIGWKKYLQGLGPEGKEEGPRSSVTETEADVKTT

Broadly, the Ki is the dissociation constant of the complex between target and ligand, obtained from inhibition or displacement. The low end stands for higher affinity, the high end for lower affinity. Regarding `CCCCCCCc1cc(O)c2c(c1)OC(C)(C)[C@@H]1CC[C@@H](CO)C[C@@H]21`, in experiment [1], the Ki turned out to be 14.3 nM. For the compound `CCCCC/C=C\c1cc(O)c2c(c1)OC(C)(C)[C@@H]1CC[C@@H](CO)C[C@@H]21`, the Ki turned out to be 9.5 nM in experiment [1] and 0.8 nM in experiment [2]. The like results for `CCCCC/C=C/c1cc(O)c2c(c1)OC(C)(C)[C@@H]1CC[C@@H](CO)C[C@@H]21` were, in that order, 5.3 nM and 1.2 nM.

With `CCCCCC#Cc1cc(O)c2c(c1)OC(C)(C)[C@@H]1CC[C@@H](CO)C[C@@H]21`, the Ki stood at 61.6 nM in experiment [1] and 5.8 nM in experiment [2].
